Laboratory results as given in patent US9618524B2, “Method, composition, isolation and identification of a plaque particle and related biomarker” (Plaxgen Inc., priority 2012, dated 2017).

How the values were obtained:
Assay in all cases: Mass spectroscopy proteomics, semi-quantitative binding affinity of serum proteins (plaqueproteome, Table 2)
Settings in all cases: higher number = stronger affinity
[1] = tested on: Low density cholesterol (Chl small) plaque particles; set-up: species or system human
In short: (§1)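 Read-out is MS/MS protein identification (Sequest, strict trypsin, 20 ppm parent tolerance; Scaffold probabilities) of serum proteins bound to flow-sorted cholesterol plaque particles. These particles formed when 50% atherosclerotic serum was incubated with 30 μg cholesterol aggregates for 1 hr at 37° C.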

[2] = tested on: High Density cholesterol (Chl Large) plaque particles; set-up: species or system human
In short: as §1

[3] = molecular target: T1, Abeta-42 plaque particles (Homo sapiens, UniProt P05067)
T1 construct: Abeta 1-42
In short: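 AD patient serum or plasma (50% in PBS) was incubated with Abeta-42 aggregates (30 μg) for 1 h at 37 °C, then stained with Thioflavin S for 30 min. Labeled particles were FACS-sorted, trypsin/Lys-C digested overnight and analyzed by MS/MS. Sequest searched human UniProt; Scaffold/Protein Prophet validated the identifications.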

[4] = tested on: Tau plaque particles; set-up: species or system human
In short: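 Serum or plasma proteins captured on Thioflavin S-labelled Tau plaque particles (Tau-74, Tau-275 oligomers preformed in PBS at 37° C for 2 h; 1 h co-incubation at 37° C) were isolated by FACS sorting, then tryptically digested and identified by MS/MS (Sequest, human UniProt, strict trypsin).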

[5] = molecular target: T2, alpha-synuclein plaque particles (Homo sapiens, UniProt P37840)
T2 construct: 140 amino acids polypeptide
In short: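 AD-subject plasma or serum (800 μL of 50%) mixed with 30 μg preformed alpha-synuclein aggregates for 1 h at 37 °C; Thioflavin S-positive particles isolated by flow sorting. After reduction, acrylamide alkylation and overnight tryptic digestion, serum proteins identified by MS/MS with Sequest and Scaffold.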

Row | Substance | Semi-quantitative analysis of proteins binding to different plaque particles: Chl small [1] | Semi-quantitative analysis of proteins binding to different plaque particles: Chl Large [2] | Semi-quantitative analysis of proteins binding to different plaque particles: Abeta-42 [3] | Semi-quantitative analysis of proteins binding to different plaque particles: Tau [4] | Semi-quantitative analysis of proteins binding to different plaque particles: Synuclein [5]
1 | Phosphatidylcholine-sterol acyltransferase | 0 | 1 | 0 | 0 | 1
2 | Plasma kallikrein | 3 | 1 | 0 | 3 | 0
3 | Plasma protease C1 inhibitor | 7 | 7 | 4 | 3 | 9
4 | Plasminogen | 9 | 11 | 7 | 13 | 7
5 | Platelet factor 4 | 0 | 1 | 2 | 1 | 1
6 | Serotransferrin | 73 | 66 | 46 | 48 | 78
7 | Serum amyloid P-component | 1 | 1 | 5 | 2 | 0
8 | Transthyretin | 21 | 25 | 14 | 13 | 23
9 | Tropomyosin alpha-3 chain | 0 | 0 | 5 | 0 | 0
10 | Tubulin beta-4B chain | 0 | 0 | 0 | 5 | 0
11 | Vitamin K-dependent protein S | 1 | 0 | 0 | 0 | 0
12 | Vitronectin | 2 | 4 | 4 | 4 | 4
